Test results from patent publication US9670223B2, “Compounds with super-aspirin effects” (SOLVOTRIN THERAPEUTICS LTD., priority 2011, dated 2017).
Entries after “also recorded” stand apart in the source; their conditions may differ.

Tests used:
P-selectin = assay: Flow cytometry of platelet P-selectin during TCIPA induced by 59M cells; format: cell-based, human; settings: 300 μM
HT1080 cells = assay: Tumour cell-induced platelet aggregation (TCIPA), static conditions, HT1080; format: cell-based, human; settings: static, WP, 300 and 500 μM, HT1080 2×10^5/ml
Method: Three human tumor cell lines, 59M ovarian adenocarcinoma, Caco-2 colon adenocarcinoma and HT1080 fibrocarcinoma cells, were obtained from the European Cell Culture Collection. Cell lines were cultured as monolayers in 75 ml culture flasks at 37° C. in a humidified atmosphere with 5% CO2. 59M cells and HT1080 were cultured in Dulbecco's […] (DMEM) supplemented with 10% fetal bovine serum (FBS) and gentamycin (0.05 mg/ml), penicillin (0.06 mg/ml), and streptomycin (0.01 mg/ml). Caco-2 cell line was cultured in Minimum Essential Medium (MEM) supplemented with 20% FBS and the same antibiotics as above. The cells were supplied with fresh medium and subcultured three times each week.
Washed platelet suspensions (2.5×10^11 platelets 1^−1) were prepared from blood an mixed with the anticoagulant sodium citrate (0.315% final concentration).
The interactions between platelets and tumor cells were measured by light aggregometry (Alonso-Escolano et al., 2004; Jurasz et al., 2001b; Radomski et al., 1991). Briefly, washed platelet samples (2.5×10^8/ml) were placed in an eight channel PAP 8 aggregometer (BIO/DATA CORPORATION, Horsham, Pa., U.S.A.) and incubated for 10 min at 37° C., with stirring at 900 r.p.m., prior to the addition of aggregating agents. […] TCIPA was initiated by the addition of cancer cells, and monitored by Aggro-Link software for at least 30 min. For experiments using inhibitors, aggregation was initiated after 10 min preincubation with these compounds.
To study the ability of the aspirin pro-drugs to inhibit TCIPA in WP cancer cell lines such as HT1080 cells (2×10^5/ml), CaCo2 cells (1.5×10^3/ml) or 59M cells (1×10^3/ml) were used in the presence or absence of aspirin nicotinate (ST0702), ISAS, orthonitrate and metanitrate at 300 and 500 μM. Platelet aggregation was initiated in washed platelets (WP) using HT1080 cells (2×10^5/ml), CaCo2 cells (1.5×10^3/ml) or 59M cells (1×10^3/ml). In addition, regular aspirin (300 and 500 uM) was used as control. Results were expressed in percent changes in maximal light transmission, with 100% representing light transmission of platelet medium alone. ST0702 is hydrolyzed by plasma esterases along two pathways liberating both aspirin and 5-nicotinate salicylate (ST0702 salicylate)(metabolite). The latter is further processed to isosorbide-5-nicotinate and eventually to nicotinic acid. The orthonitrate and metanitrate compounds liberate aspirin and nitric oxide (NO). ISAS meanwhile is hydrolysed to aspirin and salicylic acid. Aspirin (300 and 500 μM) was used in control experiments. Results were expressed in percent changes in maximal light transmission, with 100% representing light transmission of platelet medium alone. Further experiments were performed with ST0702 salicylate (500 μM).

washed platelets (WP) = assay: Collagen-induced platelet aggregation in washed platelets (light aggregometry); format: cell-based, human; parameters: IC50: unit of the concentration uncertain; settings: for IC50: inhibition of platelet aggregation in response to collagen (5 (unit uncertain)), washed platelets; for effect of eserine on inhibition of collagen-induced aggregation in WP: physostigmine (eserine) 10 μM
Method: (§1) PRP and WP (2.5×10^8 platelets ml^−1) were prepared from blood. Briefly 36 ml whole blood was collected into 4 ml of 3.15% sodium citrate; this was centrifuged at 250 ¥g for 20 min (with gentle acceleration and deceleration). At this point PRP, which had separated from white blood cells and red blood cells, was gently removed. When WP were required this PRP was centrifuged at 700 g for 10 min (with gentle acceleration and deceleration) in the presence of prostacyclin. The platelet-poor plasma (PPP) was removed and the platelet pellet was washed three times with Tyrode's buffer, before being re-suspended in Tyrode's buffer to a concentration of 2.5 ¥108 platelets/ml.
(§2) Platelet aggregation was measured by light aggregometry. […] Aggregation was initiated by the addition of agonists, and monitored by Aggro-Link software for at least 6 min.
(§3) To study the aggregatory potency of ADP, the concentration-response (0.3-10 μM) curves were generated. Collagen at different concentrations (2-5 μg/ml) was also used to induce platelet aggregation. Submaximal concentrations of agonists, i.e. the concentrations that gave approximately 95% of the maximal aggregation were used to study the effects of inhibitors of aggregation. Aspirin and aspirin prodrugs was incubated for various intervals prior to the addition of aggregating agents.
To study the involvement of plasma BuChE in the activation of ST0701, purified BuChE (3 U/ml) was incubated with WP for 5 min in the aggregometer with stirring at 900 r.p.m. before the addition of the test compounds ST0701 which was incubated with the WP for a further 10 min, prior to the addition of collagen (5 ug/ml).
(§4) Eserine (in DMSO, 10 μM, giving a final concentration≦0.25% DMSO, which pilot studies had determined not to affect platelet aggregation) was preincubated with PRP or WP for 5 min in the aggregometer with stirring at 900 r.p.m. before the addition of test compounds (ST0701-05), which were incubated in PRP or WP for a further 10 min prior to the addition of an agonist (10 μM ADP or 5 μg/ml Collagen) to induce platelet aggregation.
Phenylmethylsulphonylfluoride (PMSF) 20, 50 and 100 μM dissolved in EtOH (<0.2% EtOH, which pilot studies had determined not to affect platelet aggregation) was preincubated in WP in the aggregometer for 5 min with stirring at 900 r.p.m. before the addition of test compound ST0702 to the WP, which was further incubated for 10 min prior to the addition of collagen (2 μg/ml) to induce platelet aggregation.

[1] = cited from earlier work; for % Aspirin release: in human plasma, From Reference 7
[2] = test system: platelet rich plasma (PRP); assay: ADP-induced platelet aggregation in PRP; format: cell-based, human; settings: ADP 10 μM, PRP; for effect of ODQ pretreatment on inhibition of ADP induced aggregation: ODQ 10 μM, compounds 100 μM
Method: as §1, §2, §3, §4
1H-[1,2,4]Oxadiazolo[4,3-a]quinoxalin-1-one (ODQ, dissolved in 100% DMSO, used at a final concentration of 10 μM, which gave a final concentration not more than 0.25% DMSO) was preincubated with PRP or WP for 5 min in the aggregometer with stirring at 900 r.p.m. before the addition of test compounds (ST0701-05), which were incubated in PRP or WP for a further 10 min prior to the addition of an agonist (10 μM ADP or 5 μg/ml collagen) to induce platelet aggregation.
Eserine (10 μM) was incubated with PRP for 5 min in the aggregometer with stirring at 900 r.p.m. before the addition of test compound ST0702 salicylate (500 μM), which was incubated in PRP for a further 10 min prior to the addition of the agonist ADP (10 μM) to induce platelet aggregation.

TxB2 = TxB2 suppression after single oral gavage dose; format: in vivo, cynomolgus monkey; settings: Phase 2A, single oral gavage, ST0702 9.6 mg/kg, aspirin 4.2 mg/kg, 1 and 24 hours post dosing

Row | SMILES | 59M-mediated increase in platelet surface P-selectin (P-selectin) | inhibition of TCIPA induced by HT1080 (HT1080 cells) | inhibition of TCIPA induced by HT1080 (HT1080 cells; listed as aspirin) | IC50 (washed platelets (WP); Homo sapiens, Platelet) [µM] | IC50 (washed platelets (WP)) [µM] | effect of eserine on inhibition of collagen-induced aggregation in WP (washed platelets (WP)) | % Aspirin release [1] | inhibition of ADP (10 μM) induced aggregation in PRP, comparison in words [2] | effect of ODQ pretreatment on inhibition of ADP induced aggregation [2] | TxB2 suppression (TxB2 levels as percentage of baseline), in words (TxB2) | effect of ST0702 on collagen-induced aggregation in WP after PMSF pretreatment (washed platelets (WP); PMSF 50 μM, 20 μM, not significant) | effect of ST0702 on collagen-induced aggregation in WP after PMSF pretreatment (washed platelets (WP); PMSF 100 μM, ST0702 200 μM (200-300 μM elsewhere in the source), collagen 2 μg/ml) | aspirin released in vitro ([1]; human plasma solution / in-vitro, of available (stoichiometric) aspirin, listed as ISANA) [%]
1 | CC(=O)Oc1ccccc1C(=O)O [Aspirin] | failed to prevent | did not exert any significant effect | did not exert a significant effect | 35 | 34 | did not affect the inhibitory actions | 100% | consistently less inhibition of aggregation than ST0701/02 | increased the inhibition | effective |  |  | 
2 | CC(=O)Oc1ccccc1C(=O)O[C@H]1CO[C@H]2[C@@H]1OC[C@H]2OC(=O)c1cccnc1 [ST0702, isosorbide-2-aspirinate-5-nicotinate] | significantly (P<0.01, n=4) inhibited | consistently inhibited TCIPA |  | 154 |  | not abolished | 30-45% | more efficacious than aspirin | increased the inhibition | effective | slightly attenuated | significantly attenuated; also recorded: abolished | 40
